Laboratory results from patent EP2628482A1, “Rho kinase inhiitors for use in the treatment of neuroblastoma” (Academisch Medisch Centrum, priority 2012, dated 2013).
Counter-ions that a name gives are not always drawn.

Experiments:
ROCK = conditions: cited from earlier work
off-target kinases = conditions: reported by Aerie Pharmaceuticals; cited from earlier work
[1] = system: neuroblastoma cell lines (IMR32, SJNB8, SKNBE, SY5Y, SHEP2, SKNAS); test: Light microscopy of phenotypical changes after ROCK inhibitor treatment; format: cell-based; conditions: 25µM, 65 hours; cell bodies smaller, more elongated, neurite outgrowths appear
[2] = system: neuroblastoma cell lines (SKNBE, IMR, SJNB8, SHEP2, SKNAS, SY5Y); test: MTT assay (cell viability); format: cell-based; conditions: for cell viability: all 6 neuroblastoma cell lines, 72 hours, 3 to 200 µM; for IC50: range over 6 neuroblastoma cell lines, 72 hours treatment, dose efficacy curves, read-out: IC50 (concentration drug needed for 50% cell viability reduction)
Experimental: To determine the sensitivity of the cell lines for the ROCK-inhibitors Y27632 and HA 1077 MTT assays were done. […] The IC50 (concentration drug needed for 50% cell viability reduction) of Y27632 determined by dose efficacy curves varied from 18 to 90 µM.
Cells were plated in a 10-30% confluence in a 96-well plate and treated after 24 hours with Y27632 (=Y27632 dihydrochloride; Tocris; Cat.nr. 1254) and HA1077 (=Fasudil hydrochloride; Tocris; Cat.nr. 0541) in a concentration ranging from 3 to 200 µM. 72 hours after treatment, 10 µl of Thyazolyl blue tetrazolium bromide (MTT, Sigma M2128) was added. After 4 hours of incubation 100 µl of 10% SDS, 0.01 M HCI was added to stop the reaction. The absorbance was measured at 570 nm and 720 nm using a platereader (biotech). The IC50 (concentration drug needed for 50% cell viability reduction) was calculated using concentration vector curves.

SHEP2 cells = test: Immunofluorescence (actin / tubulin staining); format: cell-based; conditions: 50 micromolar, 24 hours of treatment

CN(C)C(C(=O)Nc1ccc2c(=O)[nH]ccc2c1)c1ccsc1 (centres unmarked) [AR-12286]
potency against ROCK (ROCK): nanomolar potency
number of off-target kinases tested at which activity was seen (off-target kinases): 5

O=S(=O)(c1cccc2cnccc12)N1CCCNCC1 [HA 1077, Fasudil hydrochloride]
phenotype of the cells (light microscope) [1]: more neuronal-like (differentiated) phenotype
cell viability [2]: decrease in viability
IC50 [2]: 15 to 45 µM
actin organization (phalloidin staining) (SHEP2 cells): structured actin fibres (green) disappear
tubulin localization (SHEP2 cells): moves from a nuclear localization towards the cytoplasm

C[C@@H](N)[C@H]1CC[C@H](C(=O)Nc2ccncc2)CC1 [Y27632, Y27632 dihydrochloride]
phenotype of the cells (light microscope) [1]: more neuronal-like (differentiated) phenotype
cell viability [2]: decrease in viability
IC50 [2]: 18 to 90 µM

C[C@@H](N)c1ccc(C(=O)Nc2ccnc3[nH]ccc23)cc1 [Y-39983/SNJ-1656/RKI-983]
number of off-target kinases tested at which activity was seen (off-target kinases): 25
